In patent US7750017B2, “Heterocycles” (Bayer Schering Pharma Aktiengesellschaft, priority 2004, dated 2010):

Tests used:
[1] = test system: A431 cells [human epidermoid carcinoma, overexpressing HER1 (EGFR, ErbB1)]; assay: In vitro tumor cell proliferation assay (Cell Titer-Glo luminescent cell viability), A431 cells; assay type: cell-based; settings: A-431, 72 h, 72 hours of drug exposure, Cell Titer-Glo readout, read-out: IC50, anti-proliferative activity in A431 cells
[2] = test system: BT474 [human breast carcinoma, overexpressing HER2 (ErbB2)]; assay: In vitro tumor cell proliferation assay (Cell Titer-Glo luminescent cell viability), BT474 cells; assay type: cell-based; settings: BT-474, 72 h, 72 hours of drug exposure, Cell Titer-Glo readout, read-out: IC50, anti-proliferative activity in BT474 cells

Row | SMILES | IC50 [1] | IC50 [2]
1 | CS(=O)(=O)CCNC(=O)Cc1ccc2c(c1)sc1ncnc(Nc3ccc(OCc4ccccn4)c(Cl)c3)c12 [Example 102, 2-(4-{[3-chloro-4-(pyridin-2-ylmethoxy)phenyl]amino}[1]benzothieno[2,3-d]pyrimidin-7-yl)-N-[2-(methylsulfonyl)ethyl] acetamide] | ≤ 50 µM | ≤ 0.5 µM
2 | COCCN(C)C(=O)Cc1ccc2c(c1)sc1ncnc(Nc3ccc(OCc4ccccn4)c(Cl)c3)c12 [Example 103, 2-(4-{[3-chloro-4-(pyridin-2-ylmethoxy)phenyl]amino}[1]benzothieno[2,3-d]pyrimidin-7-yl)-N-(2-methoxyethyl)-N-methylacetamide] | ≤ 50 µM | ≤ 5 µM
3 | COCCN1CCN(C(=O)Cc2ccc3c(c2)sc2ncnc(Nc4ccc(OCc5ccccn5)c(Cl)c4)c23)CC1 [Example 104, N-[3-chloro-4-(pyridin-2-ylmethoxy)phenyl]-7-{2-[4-(2-methoxyethyl)piperazin-1-yl]-2-oxoethyl}[1]benzothieno [2,3-d]pyrimidin-4-amine] | ≤ 50 µM | ≤ 0.5 µM
4 | O=C(Cc1ccc2c(c1)sc1ncnc(Nc3ccc(OCc4ccccn4)c(Cl)c3)c12)N(CCO)CCO [Example 105, 2(4-{[3-chloro-4-(pyridin-2-ylmethoxy)phenyl]amino}[1]benzothieno[2,3-d]pyrimidin-7-yl)-N,N-bis-(2-hydroxyethyl) acetamide] | ≤ 50 µM | ≤ 5 µM
5 | O=C(Cc1ccc2c(c1)sc1ncnc(Nc3ccc(OCc4ccccn4)c(Cl)c3)c12)NCCO [Example 106, 2(4-{[3-chloro-4-(pyridin-2-ylmethoxy)phenyl]amino}[1]benzothieno[2,3-d]pyrimidin-7-yl)-N-(2-hydroxyethyl)acetamide] | ≤ 50 µM | ≤ 5 µM
6 | COC[C@@H]1CCCN1C(=O)Cc1ccc2c(c1)sc1ncnc(Nc3ccc(OCc4ccccn4)c(Cl)c3)c12 [Example 107, N-[3-chloro-4-(pyridin-2-ylmethoxy)phenyl]-7-{2-[2-(methoxymethyl)pyrrolidin-1-yl]-2-oxoethyl}[1]benzothieno[2,3-d] pyrimidin-4-amine] | ≤ 5 µM | ≤ 5 µM
7 | O=C(Cc1ccc2c(c1)sc1ncnc(Nc3ccc(OCc4ccccn4)c(Cl)c3)c12)N1CCC[C@@H]1CO [Example 108, {1-[(4-{[3-chloro-4-(pyridin-2-ylmethoxy)phenyl]amino}[1]benzothieno[2,3-d]pyrimidin-7-yl)acetyl]pyrrolidin-2-yl}methanol] | ≤ 5 µM | ≤ 5 µM
8 | NS(=O)(=O)OCCc1ccc2c(c1)sc1ncnc(Nc3ccc(OCc4ccccn4)c(Cl)c3)c12 [Example 109, 2-(4-{[3-chloro-4-(pyridin-2-ylmethoxy)phenyl]amino}[1]benzothieno[2,3-d]pyrimidin-7-yl)ethyl sulfamate] | ≤ 5 µM | ≤ 0.5 µM
9 | Oc1ccc2c(c1)sc1ncnc(Nc3ccc(OCc4ccccn4)c(Cl)c3)c12 [Example 110, 4-{[3-chloro-4-(pyridin-2-ylmethoxy)phenyl]amino}[1] benzothieno[2,3-d]pyrimidin-7-ol] | ≤ 50 µM | ≤ 5 µM
10 | OC[C@@H](O)COc1ccc2c(c1)sc1ncnc(Nc3ccc(OCc4ccccn4)c(Cl)c3)c12 [Example 111, (2R)-3-[(4-{[3-chloro-4-(pyridin-2-ylmethoxy)phenyl]amino}[1]benzothieno[2,3-d]pyrimidin-7-yl)oxy]propane-1,2-diol] | ≤ 50 µM | ≤ 0.5 µM
11 | OC[C@H](O)COc1ccc2c(c1)sc1ncnc(Nc3ccc(OCc4ccccn4)c(Cl)c3)c12 [Example 112, (2S)-3-[(4-{[3-chloro-4-(pyridin-2-ylmethoxy)phenyl]amino}[1]benzothieno[2,3-d]pyrimidin-7-yl)oxy]propane-1,2-diol] | ≤ 5 µM | ≤ 0.5 µM
12 | Fc1cccc(Cn2ncc3cc(Nc4ncnc5sc6cc(Br)ccc6c45)ccc32)c1 [Example 113, 7-bromo-N-[1-(3-fluorobenzyl)-1H-indazol-5-yl][1]benzothieno [2,3-d]pyrimidin-4-amine] | ≤ 50 µM | ≤ 5 µM
13 | C=Cc1ccc2c(c1)sc1ncnc(Nc3ccc4c(cnn4Cc4cccc(F)c4)c3)c12 [Example 114, N-[1-(3-fluorobenzyl)-1H-indazol-5-yl]-7-vinyl[1]benzothieno[2,3-d] pyrimidin-4-amine] | ≤ 50 µM | ≤ 0.5 µM
14 | OCC(O)c1ccc2c(c1)sc1ncnc(Nc3ccc4c(cnn4Cc4cccc(F)c4)c3)c12 (stereo not drawn) [Example 115, 1-(4-{[1-(3-fluorobenzyl)-1H-indazol-5-yl]amino}[1]benzothieno [2,3-d]pyrimidin-7-yl)ethane-1,2-diol] | ≤ 5 µM | ≤ 0.5 µM
15 | OC[C@@H](O)c1ccc2c(c1)sc1ncnc(Nc3ccc4c(cnn4Cc4cccc(F)c4)c3)c12 [Example 116, (1S)-1-(4-{[1-(3-fluorobenzyl)-1H-indazol-5-yl]amino}[1]benzothieno [2,3-d]pyrimidin-7-yl)ethane-1,2-diol] | ≤ 5 µM | ≤ 0.5 µM
16 | OC[C@H](O)c1ccc2c(c1)sc1ncnc(Nc3ccc4c(cnn4Cc4cccc(F)c4)c3)c12 [Example 117, (1R)-1-(4-{[1-(3-fluorobenzyl)-1H-indazol-5-yl]amino}[1]benzothieno [2,3-d]pyrimidin-7-yl)ethane-1,2-diol] | ≤ 5 µM | ≤ 0.5 µM
17 | CCOC(=O)C(C(=O)OCC)c1ccc2c(c1)sc1ncnc(Nc3ccc4c(cnn4Cc4cccc(F)c4)c3)c12 [Example 118, diethyl (4-{[1-(3-fluorobenzyl)-1H-indazol-5-yl]amino}[1]benzothieno [2,3-d]pyrimidin-7-yl)malonate] | ≤ 50 µM | ≤ 5 µM
18 | Fc1cccc(Cn2ncc3cc(Nc4ncnc5sc6cc(N7CCNCC7)ccc6c45)ccc32)c1 [Example 119, N-[1-(3-fluorobenzyl)-1H-indazol-5-yl]-7-piperazin-1-yl[1]benzothieno [2,3-d]pyrimidin-4-amine] | ≤ 5 µM | ≤ 0.5 µM
19 | Fc1cccc(Cn2ncc3cc(Nc4ncnc5sc6cc(N7CCOCC7)ccc6c45)ccc32)c1 [Example 120, N-[1-(3-fluorobenzyl)-1H-indazol-5-yl]-7-morpholin-4-yl[1] benzothieno[2,3-d]pyrimidin-4-amine] | ≤ 50 µM | ≤ 0.5 µM
20 | O=C(O)Cc1ccc2c(c1)sc1ncnc(Nc3ccc4c(cnn4Cc4cccc(F)c4)c3)c12 [Example 121, (4-{[1-(3-fluorobenzyl)-1H-indazol-5-yl]amino}[1]benzothieno[2,3-d]pyrimidin-7-yl)acetic acid] | ≤ 50 µM | ≤ 5 µM
21 | CS(=O)(=O)CCNC(=O)Cc1ccc2c(c1)sc1ncnc(Nc3ccc4c(cnn4Cc4cccc(F)c4)c3)c12 [Example 122, 2-(4-{[1-(3-fluorobenzyl)-1H-indazol-5-yl]amino}[1]benzothieno[2,3-d]pyrimidin-7-yl)-N-[2-(methylsulfonyl)ethyl] acetamide] | ≤ 5 µM | ≤ 0.5 µM
22 | O=C(Cc1ccc2c(c1)sc1ncnc(Nc3ccc4c(cnn4Cc4cccc(F)c4)c3)c12)NC1CN2CCC1CC2 (stereo not drawn) [Example 123, N-1-azabicyclo[2.2.2]oct-3-yl-2-(4-{[1-(3-fluorobenzyl)-1H-indazol-5-yl]amino}[1]benzothieno [2,3-d]pyrimidin-7-yl)acetamide] | ≤ 5 µM | ≤ 0.5 µM
23 | CN1CCN(C(=O)Cc2ccc3c(c2)sc2ncnc(Nc4ccc5c(cnn5Cc5cccc(F)c5)c4)c23)CC1 [Example 124, N-[1-(3-fluorobenzyl)-1H-indazol-5-yl]-7-[2-(4-methylpiperazin-1-yl)-2-oxoethyl][1]benzothieno[2,3-d] pyrimidin-4-amine] | ≤ 5 µM | ≤ 0.5 µM
24 | CN(C)[C@H]1CCN(C(=O)Cc2ccc3c(c2)sc2ncnc(Nc4ccc5c(cnn5Cc5cccc(F)c5)c4)c23)C1 [Example 125, 7-{2-[3-(dimethylamino)pyrrolidin-1-yl]-2-oxoethyl}-N-[1-(3-fluorobenzyl)-1H-indazol-5-yl] [1]benzothieno[2,3-d]pyrimidin-4-amine] | ≤ 5 µM | ≤ 0.5 µM
25 | CN(C)CCNC(=O)Cc1ccc2c(c1)sc1ncnc(Nc3ccc4c(cnn4Cc4cccc(F)c4)c3)c12 [Example 126, N-[2-(dimethylamino)ethyl]-2-(4-{[1-(3-fluorobenzyl)-1H-indazol-5-yl]amino}[1]benzothieno[2,3-d]pyrimidin-7-yl)acetamide] | ≤ 5 µM | ≤ 0.5 µM
26 | OCCc1ccc2c(c1)sc1ncnc(Nc3ccc4c(cnn4Cc4cccc(F)c4)c3)c12 [Example 127, 2-(4-{[1-(3-fluorobenzyl)-1H-indazol-5-yl]amino}[1]benzothieno [2,3-d]pyrimidin-7-yl)ethanol] | ≤ 5 µM | ≤ 0.5 µM
27 | CN1CCN(CCc2ccc3c(c2)sc2ncnc(Nc4ccc5c(cnn5Cc5cccc(F)c5)c4)c23)CC1 [Example 128, N-[1-(3-fluorobenzyl)-1H-indazol-5-yl]-7-[2-(4-methylpiperazin-1-yl)ethyl][1]benzothieno[2,3-d] pyrimidin-4-amine] | ≤ 5 µM | ≤ 0.5 µM
28 | Fc1cccc(Cn2ncc3cc(Nc4ncnc5sc6cc(CCN7CCOCC7)ccc6c45)ccc32)c1 [Example 129, N-[1-(3-fluorobenzyl)-1H-indazol-5-yl]-7-(2-morpholin-4-ylethyl) [1]benzothieno[2,3-d]pyrimidin-4-amine] | ≤ 5 µM | ≤ 0.5 µM
29 | C=Cc1ccc2c(c1)sc1ncnc(Nc3ccc4c(cnn4Cc4ccccn4)c3)c12 [Example 130, N-[1-(pyridin-2-ylmethyl)-1H-indazol-5-yl]-7-vinyl[1] benzothieno[2,3-d]pyrimidin-4-amine] | ≤ 50 µM | ≤ 0.5 µM
30 | OCC(O)c1ccc2c(c1)sc1ncnc(Nc3ccc4c(cnn4Cc4ccccn4)c3)c12 (stereo not drawn) [Example 131, 1-(4-{[1-(pyridin-2-ylmethyl)-1H-indazol-5-yl]amino}[1]benzothieno [2,3-d]pyrimidin-7-yl)ethane-1,2-diol] | ≤ 50 µM | ≤ 0.5 µM
